Assay results reported in patent publication US7491827B2, “Aryl sulfonamides useful as inhibitors of chemokine receptor activity” (Millennium Pharmaceuticals, Inc., priority 2003, dated 2009).
Read-outs that look alike come from different tables or passages of the source.

Biological target: T1, cloned human CCR8 receptor stably expressed in L1.2 cells (Homo sapiens, UniProt P51685)
T1 construct: expressed in transfected cells
Experiment: whole cell binding screen: inhibition of biotinylated human I309 binding to CCR8 (FMAT 8100 HTS)
Settings: biotinylated human I-309, 10 point concentration response starting at 10 μM
Procedure, shortened: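 Ten-point dilutions, top 10 μM final, were tested for displacing biotin-I309 from hCCR8-transfected L1.2 cells in HEPES-buffered HBSS with BSA and sodium azide, mixing 0.5 h before FMAT 8100 detection. Signals converted to percent inhibition against untreated wells and a 100 nM excess unlabeled I309 control.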

[1] = L1.2/hCCR8 cells, read-out: Ki of compounds to inhibit I-309 binding to CCR8
[2] = Ki of compounds to inhibit I-309 binding to CCR8, L1.2/hCCR8 cells

T1 sequence (P51685 whole entry): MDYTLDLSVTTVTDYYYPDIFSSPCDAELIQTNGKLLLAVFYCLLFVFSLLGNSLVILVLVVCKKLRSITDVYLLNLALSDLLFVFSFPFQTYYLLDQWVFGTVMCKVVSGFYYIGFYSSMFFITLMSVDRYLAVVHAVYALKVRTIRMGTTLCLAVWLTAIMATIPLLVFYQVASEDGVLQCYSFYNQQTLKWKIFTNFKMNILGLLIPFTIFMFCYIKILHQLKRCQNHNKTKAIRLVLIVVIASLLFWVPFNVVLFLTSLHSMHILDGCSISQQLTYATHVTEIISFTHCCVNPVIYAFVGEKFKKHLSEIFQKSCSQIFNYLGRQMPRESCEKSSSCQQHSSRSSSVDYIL

| Ki [1] | SMILES | Ki [2] |
| --- | --- | --- |
| < 500 nM | CCOC(=O)N1CCC(NS(=O)(=O)c2ccc(C(=O)N(C)C3CCCCC3)c3ccccc23)CC1 [Compound F-27, 4-[4-(Cyclohexyl-methyl-carbamoyl)-naphthalene-1-sulfonylamino]-piperidine-1-carboxylic acid ethyl ester] | – |
| < 500 nM | Cc1ccccc1C(=O)Nc1ccc(S(=O)(=O)N[C@H]2CCN(C(=O)[C@H]3CCCN3)C[C@H]2C)c2ccccc12 [Compound J-7, (3R, 4S)-2-Methyl-N-{4-[3-methyl-1-((R)pyrrolidine-2-carbonyl)-piperidin-4-ylsuffamoyl]-naphthalen-1-yl}-benzamide] | – |
| < 1000 nM | Cc1ccccc1C(=O)Nc1ccc(S(=O)(=O)N[C@@H]2CCN(Cc3ccccc3)C[C@H]2C)c2c1CCC2 (racemic) [Compound H-75, (±)-trans-N-[7-(1-Benzyl-3-methyl-piperidin-4-ylsulfamoyl)-indan-4-yl]-2-methyl-benzamide] | – |
| < 1000 nM | CCCC(=O)N1CCC(NS(=O)(=O)c2ccc(C(=O)NC3CCOCC3)c3ccccc23)CC1 [Compound F-24, 4-(1-Butyryl-piperidin-4-ylsulfamoyl)-naphthalene-1-carboxylic acid (tetrahydro-pyran-4-yl)-amide] | – |
| < 1000 nM | CCOC(=O)N1CCC(NS(=O)(=O)c2cccc3c(NC(=O)c4ccccc4C)cccc23)CC1 [Compound H-12, 4-[5-(2-Methyl-benzoylamino)-naphthalene-1-sulfonylamino]-piperidine-1-carboxylic acid ethyl ester] | – |
| < 1000 nM | Cc1ccccc1C(=O)Nc1cccc2c(S(=O)(=O)Nc3ccc(Cl)cc3)cccc12 [Compound H-21, N-[5-(4-Chloro-phenylsulfamoyl)-naphthalen-1-yl]-2-methyl-benzamide] | – |
| < 500 nM | CCOC(=O)N1CCC(NS(=O)(=O)c2cccc3c(C(=O)Nc4ccccc4C)cccc23)CC1 [Compound H-28, 4-(5-o-Tolylcarbamoyl-naphthalene-1-sulfonylamino)-piperidine-1-carboxylic acid ethyl ester] | – |
| < 500 nM | CCOC(=O)N1CCC(NS(=O)(=O)c2ccc(CNCc3ccc(Cl)cc3)c3ccccc23)CC1 [Compound G-7, 4-{4-[(4-Chloro-benzylamino)-methyl]-naphthalene-1-sulfonylamino}-piperidine-1-carboxylic acid ethyl ester] | – |
| < 500 nM | Cc1cccc(NC(=O)c2cccc3c(S(=O)(=O)NC4CCN(C(=O)N(C)C)CC4)cccc23)c1C [Compound H-38, 4-[5-(2,3-Dimethyl-phenylcarbamoyl)-naphthalene-1-sulfonylamino]-piperidine-1-carboxylic acid dimethylamide] | – |
| < 1000 nM | CCOC(=O)N1CCC(NS(=O)(=O)c2cccc3c(NC(=O)N4CCOCC4)cccc23)CC1 [Compound H-17, 4-{5-[(Morpholine-4-carbonyl)-amino]-naphthalene-1-sulfonylamino}-piperidine-1-carboxylic acid ethyl ester] | – |
| < 30000 nM | O=C(Nc1ccccc1Cl)c1ccc(S(=O)(=O)NC2CCNCC2)c2ccccc12 [Compound F-17, 4-(Piperidin-4-ylsulfamoyl)-naphthalene-1-carboxylic acid (2-chloro-phenyl)-amide] | – |
| < 500 nM | CC[C@@H]1CN(C(=O)[C@@H]2CCCN2)CC[C@H]1NS(=O)(=O)c1ccc(NC(=O)c2ccccc2C)c2ccccc12 [Compound J-30, (3R, 4R)-N-{4-[3-Ethyl-1-(pyrrolidine-2-(S)-carbonyl)-piperidin-4-ylsulfamoyl]-naphthalen-1-yl}-2-methyl-benzamide] | – |

Continued, molecule first:

| SMILES | Ki [1] | Ki [2] |
| --- | --- | --- |
| Cc1ccccc1C(=O)Nc1ccc(S(=O)(=O)NCC2CCCCC2)c2c1CCCC2 [Compound E-27, N-[4-(Cyclohexylmethyl-sulfamoyl)-5,6,7,8-tetrahydro-naphthalen-1-yl]-2-methyl-benzamide] | < 500 nM | – |
| Cc1ccccc1C(=O)Nc1ccc(S(=O)(=O)N[C@H]2CCN(C(=O)N(C)C)C[C@H]2C)c2c1CCCC2 (racemic) [Compound E-20, (±)-cis-3-Methyl-4-[4-(2-methyl-benzoylamino)-5,6,7,8-tetrahydro-naphthalene-1-sulfonylamino]-piperidine-1-carboxylic acid dimethylamide] | < 500 nM | – |
| Cc1ccccc1C(=O)Nc1ccc(S(=O)(=O)NC2CCN(C(=O)OC(C)C)CC2)c2c1CCCC2 [Compound E-16, 4-[4-(2-Methyl-benzoylamino)-5,6,7,8-tetrahydro-naphthalene-1-sulfonylamino]-piperidine-1-carboxylic acid isopropyl ester] | < 500 nM | – |
| CCCC(=O)N1CCC(NS(=O)(=O)c2ccc(NC(=O)c3ccc(Cl)cc3Cl)c3ccccc23)CC1 [Compound C-111, N-[4-(1-Butyryl-piperidin-4-ylsulfamoyl)-naphthalen-1-yl]-2,4-dichloro-benzamide] | < 500 nM | – |
| CC(=O)N1CC[C@H](NS(=O)(=O)c2ccc(NC(=O)c3ccccc3C)c3ccccc23)[C@H](C)C1 (racemic) [Compound C-30, (±)-cis-N-[4-(1-Acetl-3-methyl-piperidin-4-ylsulfamoyl)-naphthalen-1-yl]-2-methyl-benzamide] | < 500 nM | – |
| CN(C)CCNS(=O)(=O)c1ccc(NC(=O)c2ccccc2)c2ccccc12 [Compound A-9, N-[4-(2-Dimethylamino-ethylsulfamoyl)-naphthalen-1-yl]-benzamide] | < 30000 nM | – |
| CC(=O)N1CCC(NS(=O)(=O)c2ccc(NC(=O)c3ccccc3C)c3ccccc23)CC1 [Compound C-49, N-[4-(1-Acetyl-piperidin-4-ylsulfamoyl)-naphthalen-1-yl]-2-methyl-benzamide] | – | < 500 nM |
| Cc1ccccc1C(=O)Nc1ccc(S(=O)(=O)NC2CCN(C(=O)CN)CC2)c2ccccc12 [Compound C-122, N-{4-[1-(2-Amino-acetyl)-piperidin-4-ylsulfamoyl]-naphthalen-1-yl}-2-methyl-benzamide] | – | < 500 nM |
| Cc1ccccc1C(=O)Nc1ccc(S(=O)(=O)N[C@@H]2[C@H](C)CN(Cc3ccccc3)C[C@@H]2C)c2ccccc12 [Compound A-46, (±)-(cis, cis)-N-[4-(1-Benzyl-3,5-dimethyl-piperidin-4-ylsulfamoyl)-naphthalen-1-yl]-2-methyl-benzamide] | < 30000 nM | – |
| CCOC(=O)N1CCC(NS(=O)(=O)c2ccc(NC(=O)c3cc(C)ccc3C)c3ccccc23)CC1 [Compound B-28, 4-[4-(2,5-Dimethyl-benzoylamino)-naphthalene-1-sulfonylamino]-piperidine-1-carboxylic acid ethyl ester] | < 500 nM | – |
| Cc1ccccc1C(=O)Nc1ccc(S(=O)(=O)N[C@@H]2CCN(C(=O)CN3CCCC3)C[C@@H]2C)c2ccccc12 (racemic) [Compound C-142, (±)-2-Methyl-N-{4-[cis-3-methyl-1-(2-pyrrolidin-1-yl-acetyl)-piperidin-4-ylsulfamoyl]-naphthalen-1-yl}-benzamide] | < 500 nM | – |
| Cc1ccccc1C(=O)Nc1ccc(S(=O)(=O)N[C@@H]2[C@H](C)CNC[C@@H]2C)c2ccccc12 [Compound C-68, (±)-(cisscis)-N-[4-(3,5-Dimethyl-piperidin-4-ylsulfamoyl)-naphthalen-1-yl]-2-methyl-benzamide] | < 30000 nM | – |
| Cc1ccccc1C(=O)Nc1ccc(S(=O)(=O)NC2CCN(C(=O)[C@@H]3CCCN3)CC2)c2ccccc12 [Compound C-125, (S)-2-Methyl-N-{4-[1-(pyrrolidine-2-carbonyl)-piperidin-4-ylsulfamoyl]-naphthalen-1-yl}-benzamide] | – | < 500 nM |
| O=C(Nc1ccc(S(=O)(=O)NC2CCNCC2)c2ccccc12)c1c(F)cccc1C(F)(F)F [Compound C-107, 2-Fluoro-N-[4-(piperidin-4-ylsulfamoyl)-naphthalen-1-yl]-6-trifluoromethyl-benzamide] | < 30000 nM | – |
| O=C(Nc1ccc(S(=O)(=O)Nc2ccc(-c3ccccc3)cc2)c2ccccc12)c1ccccc1 [Compound A-29] | < 30000 nM | – |
| COc1ccc(NS(=O)(=O)c2ccc(NC(=O)c3ccccc3)c3c2CCCC3)cc1 [Compound E-3, N-[4-(4-Methoxy-phenylsulfamoyl)-5,6,7,8-tetrahydro-naphthalen-1-yl]-benzamide] | < 500 nM | – |
| CCN(CC)C(=O)N1CCC(NS(=O)(=O)c2ccc(NC(=O)c3ccccc3C)c3c2CCCC3)CC1 [Compound E-14, 4-[4-(2-Methyl-benzoylamino)-5,6,7,8-tetrahydro-naphthalene-1-sulfonylamino]-piperidine-1-carboxylic acid diethylamide] | < 1000 nM | – |
| Cc1ccccc1C(=O)Nc1ccc(S(=O)(=O)NC2CCN(C(=O)N(C)C)C2)c2c1CCCC2 (racemic) [Compound E-32, (±)-3-[4-(2-Methyl-benzoylamino)-5,6,7,8-tetrahydro-naphthalene-1-sulfonylamino]-pyrrolidine-1-carboxylic acid dimethylamide] | < 500 nM | – |
| CCNC(=O)N1CCCC(NS(=O)(=O)c2ccc(NC(=O)c3ccccc3C)c3ccccc23)C1 (racemic) [Compound C-113, (±)-3-[4-(2-Methyl-benzoylangno)-naphthalene-1-sulfonylamino]-piperidine-1-carboxylic acid ethylamide] | < 500 nM | – |
| Cc1ccccc1C(=O)Nc1ccc(S(=O)(=O)N[C@@H]2CCN(C(=O)CN3CCCCC3)C[C@@H]2C)c2ccccc12 (racemic) [Compound C-143, (±)-2-Methyl-N-{4-[cis-3-methyl-1-(2-piperidin-1-yl-aceyl)-piperidin-4-ylsulfamoyl]-naphthalen-1-yl}-benzamide] | < 30000 nM | – |
| Cc1ccccc1C(=O)Nc1ccc(S(=O)(=O)NC2CCN(c3nc4ccccc4o3)CC2)c2ccccc12 [Compound C-60, N-[4-(1-Benzooxazol-2-yl-piperidin-4-ylsulfamoyl)-naphthalen-1-yl]-2-methyl-benzamide] | < 500 nM | – |
